Read-outs that look alike come from different tables or passages of the source.
Assays:
[1] = system: KB (epidermoid carcinoma of the nasopharynx); test: Antiproliferative SRB assay, KB; format: cell-based, human
[2] = system: KB-vin (vincristine-resistant KB subline); test: Antiproliferative SRB assay, KB-vin; format: cell-based, human
Mer TK = conditions: cited from earlier work
[3] = system: A549 (human lung carcinoma); test: Antiproliferative SRB assay, A549; format: cell-based; conditions: A549, read-out: GI50 A549
DU145 (prostate cancer) = test: Antiproliferative SRB assay, DU145; format: cell-based; conditions: Homo sapiens, DU-145, read-out: GI50 DU145
[4] = paclitaxel reference, values in nM

SMILES: Nc1ccc(Nc2nc(NCCCO)c3ccccc3n2)cc1 [7b]
- GI50 KB ([1]; SRB): 19700 nM
- GI50 KB-vin ([2]; SRB): 18700 nM

SMILES: CCCCNc1ncc2c(-c3ccc(F)cc3)nn(CC3CCC(N)CC3)c2n1 (stereo not shown) [UNC569]
- Mer inhibitory potency (Mer TK): subnanomolar

SMILES: CCCCNc1ncc(C(=O)NCc2ccc(-n3ccnc3)cc2)c(NC2CCC(O)CC2)n1 (stereo not shown) [UNC2881]
- Mer inhibitory potency (Mer TK): subnanomolar

SMILES: OCCCNc1nc(Nc2ccc(F)cc2)nc2ccccc12 [7c, 2-(4-Fluorophenyl)amino-4-(3-hydroxypropyl)aminoquinazoline]
- GI50 KB ([1]; SRB): 17100 nM
- GI50 KB-vin ([2]; SRB): 24200 nM

SMILES: N#Cc1ccc(Nc2nc(NC3CCCC3)c3ccccc3n2)cc1 [6a, 2-(4-Cyanophenyl)amino-4-(N-cyclopentyl)aminoquinazoline]
- GI50 KB ([1]; SRB): >31300 nM
- GI50 KB-vin ([2]; SRB): >31300 nM

SMILES: CC(=O)O[C@H]1C(=O)[C@@]2(C)[C@H]([C@H](OC(=O)c3ccccc3)[C@]3(O)C[C@H](OC(=O)[C@H](O)[C@@H](NC(=O)c4ccccc4)c4ccccc4)C(C)=C1C3(C)C)[C@]1(OC(C)=O)CO[C@@H]1C[C@@H]2O [Paclitaxel]
- GI50 [3]: 0.0049 µM
- GI50 KB [1, 4]: 2.6 nM
- GI50 KB-vin [2, 4]: 948 nM
- GI50 (DU145 (prostate cancer)): 0.0026 µM

SMILES: CC(C)n1cnc2/c(=N/c3cccc(Cl)c3)nc(NCCO)[nH]c21 [C-52]
- Mer inhibitory potency (Mer TK; literature Mer inhibitors): weak
